Test results from ChEMBL document CHEMBL4834422, “New Tyramine- and Aporphine-Type Alkamides with NO Release Inhibitory Activities from Piper puberulum” (J Nat Prod, 2021).

Columns and labels:
BV-2 [1] = assay: Antineuroinflammatory activity against mouse BV2 cells assessed as inhibition of LPS-induced NO production incubated for 20 hrs by Griess assay; format: functional, cell-based; settings: BV-2, 20 h
BV-2 [2] = assay: Cytotoxicity against mouse BV2 cells assessed as reduction in cell viability at 1 to 25 uM after 24 hrs by MTT assay; format: cell-based; settings: bv-2, 24 h, dose 1-25 µM

With COc1ccc(O)c(C(=O)NCCc2ccc(O)c(OC)c2)c1 the IC50 (BV-2 [1]) was 26 µM and the Activity (BV-2 [2]) was “Non-Toxic”.
Compound COc1ccc(OC)c(C(=O)NCCc2ccc(O)c(OC)c2)c1 has an IC50 (BV-2 [1]) of over 50 µM.
COc1ccc(CCNC(=O)c2cc(O)ccc2O)cc1 was tested, and the IC50 (BV-2 [1]) was 7 µM and the Activity (BV-2 [2]) was “Non-Toxic”.
With COc1cc2c3c(cc4ccccc4c3c1OC)NC(=O)C2=O [NORCEPHARADIONE] the IC50 (BV-2 [1]) was 37 µM and the Activity (BV-2 [2]) was “Non-Toxic”.
For COc1cc2c3c(c1OC)-c1ccccc1[C@H](O)[C@H]3N(C(C)=O)CC2, the IC50 (BV-2 [1]) was over 50 µM.
COc1cc(/C=C\C(=O)NCCc2ccc(O)cc2)ccc1O was tested, and the IC50 (BV-2 [1]) was 22 µM and the Activity (BV-2 [2]) was “Non-Toxic”.
In the case of CC(=O)N1CCc2cc3c(c4c2[C@H]1[C@@H](O)c1ccccc1-4)OCO3, the IC50 (BV-2 [1]) is reported as 9 µM and the Activity (BV-2 [2]) is reported as “Non-Toxic”.
In the case of O=C(/C=C/c1ccc(O)cc1)NCCc1ccc(O)cc1 [N-P-COUMAROYL TYRAMINE], the IC50 (BV-2 [1]) is reported as 2.2 µM and the Activity (BV-2 [2]) is reported as “Non-Toxic”.
In the case of COc1c(O)cc2c3c1-c1ccccc1[C@H](O)[C@H]3N(C(C)=O)CC2, the IC50 (BV-2 [1]) is reported as over 50 µM.
COc1cc(/C=C\C(=O)NCCc2ccc(O)cc2)cc(OC)c1O was tested, and the IC50 (BV-2 [1]) was over 50 µM.
For O=CN1CCc2cc3c(c4c2[C@H]1[C@@H](O)c1ccccc1-4)OCO3, the IC50 (BV-2 [1]) was 6.8 µM and the Activity (BV-2 [2]) was “Non-Toxic”.
Work on COc1cccc(/C=C/C(=O)N2CCCC2)c1 yielded an IC50 (BV-2 [1]) of over 50 µM.
COc1ccc(O)c(C(=O)NCCc2ccc(O)cc2)c1 showed an IC50 (BV-2 [1]) of over 50 µM.
Work on COc1ccc(CCNC(=O)c2cc(OC)ccc2O)cc1 yielded an IC50 (BV-2 [1]) of over 50 µM.
Work on COc1cc2c3c(cc4ccccc4c3c1O)NC2=O [PIPEROLACTAM A] yielded an IC50 (BV-2 [1]) of over 50 µM.
In the case of COc1c(O)c(OC)c2c3c1CCN(C(C)=O)[C@@H]3[C@@H](O)c1ccccc1-2, the IC50 (BV-2 [1]) is reported as over 50 µM.
With COc1cc(/C=C/C(=O)NCCc2ccc(O)cc2)ccc1O [N-TRANS-FERULOYL TYRAMINE] the IC50 (BV-2 [1]) was 18 µM and the Activity (BV-2 [2]) was “Non-Toxic”.
With COc1cc(/C=C/C(=O)NCCc2ccc(O)cc2)cc(OC)c1O [TRANS-N-SINAPOYLTYRAMINE] the IC50 (BV-2 [1]) was over 50 µM.
In the case of O=C(NCCc1ccc(O)cc1)c1ccc(O)c(O)c1, the IC50 (BV-2 [1]) is reported as 21 µM and the Activity (BV-2 [2]) is reported as “Non-Toxic”.
Work on COc1cc2c3c(cc4ccccc4c3c1OC)NC2=O [CEPHARANONE B] yielded an IC50 (BV-2 [1]) of over 50 µM.
Compound COc1cc([C@H]2c3c(cc(OC)c(O)c3OC)C=C(C(=O)NCCc3ccc(O)cc3)[C@@H]2C(=O)NCCc2ccc(O)cc2)cc(OC)c1O has an IC50 (BV-2 [1]) of over 50 µM.
COc1ccc(CCNC(=O)c2c(O)ccc(O)c2OC)cc1 was tested, and the IC50 (BV-2 [1]) was 1.4 µM and the Activity (BV-2 [2]) was “Non-Toxic”.
Compound COc1c2c3c(c(OC)c1OC)-c1ccccc1[C@H](O)[C@H]3N(C(C)=O)CC2 has an IC50 (BV-2 [1]) of over 50 µM.
In the case of CCCCC/C=C/C=C/C(=O)NCC(C)C [PELLITORIN], the IC50 (BV-2 [1]) is reported as 45 µM and the Activity (BV-2 [2]) is reported as “Non-Toxic”.
For O=C1c2ccccc2-c2c3c(cc4ccnc1c24)OCO3 [LIRIODENINE], the IC50 (BV-2 [1]) was 5 µM and the Activity (BV-2 [2]) was “Non-Toxic”.
Work on CN(C)c1ccc(O)c2c1C[C@H]1C[C@H]3[C@H](N(C)C)C(O)=C(C(N)=O)C(=O)[C@@]3(O)C(O)=C1C2=O [MINOCYCLINE] yielded an IC50 (BV-2 [1]) of 15 µM.
With COc1c2c3c(c4c1OCO4)-c1ccccc1[C@H](O)[C@H]3N(C(C)=O)CC2 the IC50 (BV-2 [1]) was 16 µM and the Activity (BV-2 [2]) was “Non-Toxic”.
With COc1cc(/C=C/C(=O)NCCc2ccc(O)c(OC)c2)ccc1O the IC50 (BV-2 [1]) was over 50 µM.
In the case of COc1c(OC)c(OC)c2c3c(cc4ccccc42)NC(=O)c13, the IC50 (BV-2 [1]) is reported as 12 µM and the Activity (BV-2 [2]) is reported as “Non-Toxic”.
Compound NC(=O)c1cn(CCc2ccc(O)cc2)c(=O)c2c(O)ccc(O)c12 has an IC50 (BV-2 [1]) of over 50 µM.
